Data: patent US6737383B1, “Herbicidal oxadiazolidines” (priority 1999, dated 2004)

Experiments:
velvetleaf = experiment: Test B pre/postemergence velvetleaf; type: in vivo, Abutilon theophrasti; settings: for Plant response rating, Velvetleaf: scale of 0 to 10 where 0 is no effect and 10 is complete control
How it was run: (§1)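 Herbicidal effect was estimated by eye on a ten-point control scale after plants spent twelve to sixteen days in a greenhouse following soil or foliar treatment. Foliar sprays targeted plants at one to four leaves; all doses were formulated in a non-phytotoxic solvent with surfactant.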

pigweed = experiment: Test B pre/postemergence pigweed; type: in vivo, Amaranthus retroflexus; settings: for Plant response rating, Redroot pigweed: scale of 0 to 10 where 0 is no effect and 10 is complete control
How it was run: as §1

surinam grass = experiment: Test B pre/postemergence surinam grass; type: in vivo, Brachiaria decumbens
How it was run: as §1

smallflower flatsedge = experiment: Test B flood test smallflower flatsedge; type: in vivo, Cyperus difformis
How it was run: (§2)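 Each value is a visual injury score relative to controls, with 10 meaning complete control and 0 no effect. Evaluation took place twelve to sixteen days after the 2-leaf-stage plants were treated and kept in the greenhouse.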

bamyardgrass = experiment: Test B flood test barnyardgrass; type: in vivo, Echinochloa crus-galli
How it was run: as §2

purple nutsedge = experiment: Test B pre/postemergence purple nutsedge; type: in vivo, Cyperus rotundus
How it was run: as §1

blackgrass = experiment: Test B pre/postemergence blackgrass; type: in vivo, Alopecurus myosuroides
How it was run: as §1

rice = experiment: Test B flood test rice; type: in vivo, Oryza sativa
How it was run: as §2

soybean = experiment: Test B pre/postemergence soybean; type: in vivo, Glycine max
How it was run: as §1

cocklebur = experiment: Test B pre/postemergence cocklebur; type: in vivo, Xanthium strumarium
How it was run: as §1

giant foxtail = experiment: Test B pre/postemergence giant foxtail; type: in vivo, Setaria faberii
How it was run: as §1

crabgrass = experiment: Test B pre/postemergence crabgrass; type: in vivo, Digitaria sanguinalis
How it was run: as §1

morningglory = experiment: Test B pre/postemergence morningglory; type: in vivo, Ipomoea hederacea; settings: for Plant response rating, Morningglory: scale of 0 to 10 where 0 is no effect and 10 is complete control
How it was run: as §1

bedstraw = experiment: Test B pre/postemergence bedstraw; type: in vivo, Galium aparine; settings: Preemergence; for Plant response rating, Bedstraw: scale of 0 to 10 where 0 is no effect and 10 is complete control; for Bedstraw plant response rating: scale 0 to 10, 0 is no effect, 10 is complete control
How it was run: as §1

wild oat = experiment: Test B pre/postemergence wild oat; type: in vivo, Avena fatua; settings: for Plant response rating, Wild oats: scale of 0 to 10 where 0 is no effect and 10 is complete control
How it was run: as §1

wheat = experiment: Test B pre/postemergence wheat; type: in vivo, Triticum aestivum; settings: for Plant response rating, Wheat: scale of 0 to 10 where 0 is no effect and 10 is complete control
How it was run: as §1

[1] = Postemergence, Rate 250 g/ha, scale 0 to 10
[2] = Preemergence, Rate 250 g/ha, scale 0 to 10, 0 is no effect, 10 is complete control
[3] = Preemergence, Rate 500 g/ha, scale 0 to 10, 0 is no effect, 10 is complete control
[4] = Rate 62 g/ha, Postemergence, scale 0 to 10, 0 no effect, 10 complete control
[5] = Rate 125 g/ha, Postemergence, scale 0 to 10, 0 is no effect, 10 is complete control
[6] = Postemergence, Rate 500 g/ha, scale of 0 to 10 where 0 is no effect and 10 is complete control
[7] = Preemergence, Rate 62 g/ha, scale of 0 to 10 where 0 is no effect and 10 is complete control
[8] = Preemergence, Rate 125 g/ha, scale of 0 to 10 where 0 is no effect and 10 is complete control
[9] = Rate 62 g/ha, flood test species, Pre-emergence, visual evaluation after twelve to sixteen days
[10] = Rate 125 g/ha, under heading Pre-emergence, flood test species, visual evaluation after twelve to sixteen days
[11] = Rate 250 g/ha, Pre-emergence (flood test species), scale 0 to 10, 0 is no effect, 10 is complete control
[12] = Rate 500 g/ha, Pre-emergence, flood test species, scale 0 to 10 (0 no effect, 10 complete control)

In the case of `CC(C)N(C(=O)n1oc(=O)n(COCC[Si](C)(C)C)c1=O)c1ccc(Cl)cc1` [Compound 467], the “Velvetleaf plant response rating” value (velvetleaf; [1]) is reported as 0, the “Plant response rating, Velvetleaf” value (velvetleaf; Preemergence, Rate 62 g/ha) is reported as 0 and the “Plant response rating, Velvetleaf” value (velvetleaf; Preemergence, Rate 125 g/ha) is reported as 0. For the same compound, the “Velvetleaf plant response rating” value (velvetleaf; [2]) was 0, the “Velvetleaf plant response rating” value (velvetleaf; [3]) was 1 and the “Velvetleaf plant response rating” value (velvetleaf; [4]) was 0. For the same compound, the “Velvetleaf plant response rating” value (velvetleaf; [5]) was 0, the “Redroot pigweed plant response rating” value (pigweed; [1]) was 3 and the “Plant response rating, Redroot pigweed” value (pigweed; Preemergence, Rate 62 g/ha) was 7. The “Plant response rating, Redroot pigweed” value (pigweed; Preemergence, Rate 125 g/ha) was 7, the “Redroot pigweed plant response rating” value (pigweed; [2]) was 7 and the “Redroot pigweed plant response rating” value (pigweed; [3]) was 9. The “Redroot pigweed plant response rating” value (pigweed; [5]) was 0, the “B. signalgrass plant response rating” value (surinam grass; Postemergence, Rate 250 g/ha, scale 0 to 10, 0 no effect, 10 complete control) was 0 and the “B. signalgrass plant response rating” value (surinam grass; [6]) was 0. The “Plant response rating, B. signalgrass” value (surinam grass; [7]) was 0, the “Plant response rating, B. signalgrass” value (surinam grass; [8]) was 0 and the “B. signalgrass plant response rating” value (surinam grass; [2]) was 0. The “B. signalgrass plant response rating” value (surinam grass; [3]) was 2, the “B. signalgrass plant response rating” value (surinam grass; [4]) was 0 and the “B. signalgrass plant response rating” value (surinam grass; [5]) was 0. For the same compound, the “Plant response rating, S. Flatsedge (0 to 10 scale, 0 is no effect, 10 is complete control)” value (smallflower flatsedge; [9]) was 0, the “S. Flatsedge plant response rating (0 to 10 scale, 0 is no effect, 10 is complete control)” value (smallflower flatsedge; [10]) was 0 and the “S. Flatsedge plant response rating” value (smallflower flatsedge; [11]) was 0. For the same compound, the “S. Flatsedge plant response rating” value (smallflower flatsedge; [12]) was 0, the “Plant response rating, Barnyardgrass (0 to 10 scale, 0 is no effect, 10 is complete control)” value (bamyardgrass; [9]) was 0 and the “Barnyardgrass plant response rating (0 to 10 scale, 0 is no effect, 10 is complete control)” value (bamyardgrass; [10]) was 0. The “Barnyardgrass plant response rating” value (bamyardgrass; [11]) was 0, the “Barnyardgrass plant response rating” value (bamyardgrass; [12]) was 0 and the “Nutsedge plant response rating” value (purple nutsedge; [1]) was 0. For the same compound, the “Plant response rating, Nutsedge” value (purple nutsedge; [8]) was 0, the “Nutsedge plant response rating” value (purple nutsedge; [2]) was 0 and the “Nutsedge plant response rating” value (purple nutsedge; [3]) was 0. The “Nutsedge plant response rating” value (purple nutsedge; [4]) was 0, the “Blackgrass plant response rating” value (blackgrass; [1]) was 0 and the “Blackgrass plant response rating” value (blackgrass; [6]) was 7. For the same compound, the “Plant response rating, Blackgrass” value (blackgrass; [7]) was 0, the “Plant response rating, Blackgrass” value (blackgrass; [8]) was 2 and the “Blackgrass plant response rating” value (blackgrass; [2]) was 2. The “Blackgrass plant response rating” value (blackgrass; [3]) was 2, the “Blackgrass plant response rating” value (blackgrass; [4]) was 0 and the “Blackgrass plant response rating” value (blackgrass; [5]) was 0. The “Plant response rating, Rice (0 to 10 scale, 0 is no effect, 10 is complete control)” value (rice; [9]) was 0, the “Rice plant response rating (0 to 10 scale, 0 is no effect, 10 is complete control)” value (rice; [10]) was 0 and the “Rice plant response rating” value (rice; [11]) was 0. For the same compound, the “Rice plant response rating” value (rice; [12]) was 0, the “Soybean plant response rating” value (soybean; [1]) was 0 and the “Plant response rating, Soybean” value (soybean; [8]) was 0. For the same compound, the “Soybean plant response rating” value (soybean; [2]) was 0, the “Soybean plant response rating” value (soybean; [3]) was 0 and the “Soybean plant response rating” value (soybean; [4]) was 0. The “Soybean plant response rating” value (soybean; [5]) was 0, the “Cocklebur plant response rating” value (cocklebur; [1]) was 0 and the “Cocklebur plant response rating” value (cocklebur; [6]) was 5. For the same compound, the “Plant response rating, Cocklebur” value (cocklebur; [7]) was 2, the “Plant response rating, Cocklebur” value (cocklebur; [8]) was 4 and the “Cocklebur plant response rating” value (cocklebur; [2]) was 6. For the same compound, the “Cocklebur plant response rating” value (cocklebur; [3]) was 6, the “Cocklebur plant response rating” value (cocklebur; [4]) was 0 and the “Cocklebur plant response rating” value (cocklebur; [5]) was 0. The “Giant foxtail plant response rating” value (giant foxtail; [1]) was 2, the “Giant foxtail plant response rating” value (giant foxtail; [6]) was 4 and the “Plant response rating, Giant foxtail” value (giant foxtail; [7]) was 0. The “Plant response rating, Giant foxtail” value (giant foxtail; [8]) was 7, the “Giant foxtail plant response rating” value (giant foxtail; [2]) was 9 and the “Giant foxtail plant response rating” value (giant foxtail; [3]) was 9. For the same compound, the “Giant foxtail plant response rating” value (giant foxtail; [4]) was 0, the “Giant foxtail plant response rating” value (giant foxtail; [5]) was 0 and the “Crabgrass plant response rating” value (crabgrass; [1]) was 0. For the same compound, the “Crabgrass plant response rating” value (crabgrass; [6]) was 6, the “Plant response rating, Crabgrass” value (crabgrass; [7]) was 5 and the “Plant response rating, Crabgrass” value (crabgrass; [8]) was 6. For the same compound, the “Crabgrass plant response rating” value (crabgrass; [2]) was 6, the “Crabgrass plant response rating” value (crabgrass; [3]) was 8 and the “Crabgrass plant response rating” value (crabgrass; [4]) was 0. The “Crabgrass plant response rating” value (crabgrass; [5]) was 0, the “Morningglory plant response rating” value (morningglory; [1]) was 7 and the “Plant response rating, Morningglory” value (morningglory; Preemergence, Rate 62 g/ha) was 0. For the same compound, the “Plant response rating, Morningglory” value (morningglory; Preemergence, Rate 125 g/ha) was 0, the “Morningglory plant response rating” value (morningglory; [2]) was 0 and the “Morningglory plant response rating” value (morningglory; [3]) was 0. For the same compound, the “Morningglory plant response rating” value (morningglory; [4]) was 3, the “Morningglory plant response rating” value (morningglory; [5]) was 7 and the “Plant response rating, Bedstraw” value (bedstraw; Rate 62 g/ha) was 0. For the same compound, the “Plant response rating, Bedstraw” value (bedstraw; Rate 125 g/ha) was 0, the “Bedstraw plant response rating” value (bedstraw; Rate 250 g/ha) was 0 and the “Bedstraw plant response rating” value (bedstraw; Rate 500 g/ha) was 0. The “Wild oats plant response rating” value (wild oat; [1]) was 2, the “Plant response rating, Wild oats” value (wild oat; Preemergence, Rate 62 g/ha) was 0 and the “Plant response rating, Wild oats” value (wild oat; Preemergence, Rate 125 g/ha) was 0. The “Wild oats plant response rating” value (wild oat; [2]) was 0, the “Wild oats plant response rating” value (wild oat; [3]) was 0 and the “Wild oats plant response rating” value (wild oat; [4]) was 0. The “Wild oats plant response rating” value (wild oat; [5]) was 0, the “Wheat plant response rating” value (wheat; [1]) was 0 and the “Plant response rating, Wheat” value (wheat; Preemergence, Rate 62 g/ha) was 0. For the same compound, the “Plant response rating, Wheat” value (wheat; Preemergence, Rate 125 g/ha) was 0, the “Wheat plant response rating” value (wheat; [2]) was 0 and the “Wheat plant response rating” value (wheat; [3]) was 0. For the same compound, the “Wheat plant response rating” value (wheat; [4]) was 0 and the “Wheat plant response rating” value (wheat; [5]) was 0.
